Measurements as given in patent US4556658A, “7-Amino-1-cyclopropyl-6,8-difluoro-1,4-di hydro-4-oxo-quinoline-3-carboxylic acids and antibacterial agents containing these compounds” (Bayer Aktiengesellschaft, priority 1983, dated 1985).
In brackets after ≈: the same amount, converted by molar mass. Like-named read-outs stand apart in the source and are kept apart here.

Tests used:
Type in all cases: cell-based
[1] = tested on: Streptococc. faecal. 9790; test: MIC, agar dilution test, Streptococc. faecal. 9790
From the text: (§1) | Denley multipoint inoculator

Pseudomonas W. = test: MIC, agar dilution test, Pseudomonas W.
From the text: as §1

Proteus mir. 8223 = test: MIC, agar dilution test, Proteus mir. 8223; settings: Proteus mirabilis
From the text: as §1

Proteus morg. 932 = test: MIC, agar dilution test, Proteus morg. 932; settings: Morganella morganii, Isosensitest medium
From the text: as §1

[2] = Streptococc. faecal. 9790, agar dilution, Isosensitest medium, read-out: MIC
[3] = Pseudomonas W., agar dilution, Isosensitest medium, read-out: MIC
[4] = Proteus mir. 8223, agar dilution, Isosensitest medium, read-out: MIC

Structure (SMILES) | MIC [1] [µg/mL] | MIC (Pseudomonas W.; Pseudomonas) [µg/mL] | MIC (Proteus mir. 8223; MIR.8223) [µg/mL] | MIC [1, 2] [µg/mL] | MIC (Pseudomonas W.; [3]) [µg/mL] | MIC (Proteus morg. 932) [µg/mL] | MIC (Proteus mir. 8223; [4]) [µg/mL]
Cl.O=C(O)c1cn(C2CC2)c2c(F)c(N3CCNCC3)c(F)cc2c1=O [Example 1, 1-cyclopropyl-6,8-difluoro-7-(piperazin-1-yl)-1,4-dihydro-4-oxoquinoline-3-carboxylic acid hydrochloride] | 250 | 60 | 2000 |  |  |  | 
O=C(O)c1cn(C2CC2)c2c(F)c(N3CCOCC3)c(F)cc2c1=O [Example 7, 1-cyclopropyl-6,8-difluoro-7-(morpholin-4-yl)-1,4-dihydro-4-oxoquinoline-3-carboxylic acid] |  |  |  | 500 (≈ 1430 µM) | 1000 (≈ 2850 µM) | 60 (≈ 171 µM) | 8000 (≈ 22800 µM)
CC1CN(c2c(F)cc3c(=O)c(C(=O)O)cn(C4CC4)c3c2F)CC(C)N1 (centres unmarked) [Example 5] |  |  |  | 500 (≈ 1320 µM) | 1000 (≈ 2650 µM) |  | 4000 (≈ 10600 µM)
CCN1CCN(c2c(F)cc3c(=O)c(C(=O)O)cn(C4CC4)c3c2F)CC1 [Example 13] |  |  |  | 1000 (≈ 2650 µM) | 500 (≈ 1320 µM) |  | 4000 (≈ 10600 µM)
O=C(O)c1cn(C2CC2)c2c(F)c(N3CCN(CC4CC4)CC3)c(F)cc2c1=O [Example 15, 1-cyclopropyl-7-(4-cyclopropylmethylpiperazin-1-yl)-6,8-difluoro-1,4-dihydro-4-oxoquinoline-3-carboxylic acid] |  |  |  | 2000 (≈ 4960 µM) | 8000 (≈ 19800 µM) | 60 (≈ 149 µM) | 8000 (≈ 19800 µM)
O=C(O)c1cn(C2CC2)c2c(F)c(N3CCCC3)c(F)cc2c1=O [Example 11] |  |  |  | 500 (≈ 1500 µM) | 4000 (≈ 12000 µM) | 500 (≈ 1500 µM) | 8000 (≈ 23900 µM)
CC1CN(c2c(F)cc3c(=O)c(C(=O)O)cn(C4CC4)c3c2F)CC(C)O1 (centres unmarked) [Example 10] |  |  |  | 250 (≈ 661 µM) | 4000 (≈ 10600 µM) | 1000 (≈ 2640 µM) | 8000 (≈ 21100 µM)
CN1CCN(c2c(F)cc3c(=O)c(C(=O)O)cn(C4CC4)c3c2F)CC1.Cl [Example 2, 1-cyclopropyl-6,8-difluoro-7-(4-methylpiperazin-1-yl)-1,4-dihydro-4-oxoquinoline-3-carboxylic acid hydrochloride] |  |  |  | 500 |  |  | 2000
CC1CN(c2c(F)cc3c(=O)c(C(=O)O)cn(C4CC4)c3c2F)CCN1 (centres unmarked) [Example 3] |  |  |  | 500 (≈ 1380 µM) | 500 (≈ 1380 µM) |  | 4000 (≈ 11000 µM)
CCC1CN(c2c(F)cc3c(=O)c(C(=O)O)cn(C4CC4)c3c2F)CCN1 (centres unmarked) [Example 4] |  |  |  | 500 (≈ 1320 µM) | 1000 (≈ 2650 µM) |  | 8000 (≈ 21200 µM)
O=C(O)c1cn(C2CC2)c2c(F)c(N3CCN(CCO)CC3)c(F)cc2c1=O [Example 6] |  |  |  | 500 (≈ 1270 µM) | 1000 (≈ 2540 µM) |  | 4000 (≈ 10200 µM)
CCN1CCN(c2c(F)cc3c(=O)c(C(=O)O)cn(C4CC4)c3c2F)CC1C (centres unmarked) [Example 14] |  |  |  | 1000 (≈ 2550 µM) | 4000 (≈ 10200 µM) | 30 (≈ 76.6 µM) | 16000 (≈ 40900 µM)
O=C(O)c1cn(C2CC2)c2c(F)c(N3CCC(O)CC3)c(F)cc2c1=O [Example 8] |  |  |  |  | 1000 (≈ 2740 µM) | 30 (≈ 82.3 µM) | 4000 (≈ 11000 µM)
CC(C)N1CCN(c2c(F)cc3c(=O)c(C(=O)O)cn(C4CC4)c3c2F)CC1.I [Example 12, 1-cyclopropyl-6,8-difluoro-7-(4-isopropylpiperazin-1-yl)-1,4-dihydro-4-oxoquinoline-3-carboxylic acid hydriodide] |  |  |  | 2000 | 8000 | 60 | 16000
CC(=O)CCN1CCN(c2c(F)cc3c(=O)c(C(=O)O)cn(C4CC4)c3c2F)CC1 [Example 28, 1-cyclopropyl-6,8-difluoro-1,4-dihydro-4-oxo-7-[4-(3-oxobutyl)-piperazin-1-yl]-quinoline-3-carboxylic acid] |  |  |  | 500 (≈ 1190 µM) | 250 (≈ 596 µM) |  | 4000 (≈ 9540 µM)
